# In ChEMBL document CHEMBL4828738, “Design, synthesis and evaluation of novel 5-phenylthiophene derivatives as potent fungicidal of Candida albicans and antifungal reagents of fluconazole-resistant fungi” (Eur J Med Chem, 2021):
# Tests used:
# [1] = tested on: Cryptococcus neoformans; experiment: Antifungal activity against Cryptococcus neoformans CGMCC2.3161 assessed as fungal growth inhibition by CLSI protocol based method; format: functional
# [2] = tested on: Candida tropicalis; experiment: Antifungal activity against Candida tropicalis CGMCC 2.3739 assessed as fungal growth inhibition by CLSI protocol based method; format: functional
# [3] = tested on: Candida albicans; experiment: Antifungal activity against Candida albicans CPCC400616 assessed as fungal growth inhibition by CLSI protocol based method; format: functional
# [4] = tested on: Candida parapsilosis; experiment: Antifungal activity against Candida parapsilosis GIM2.190 assessed as fungal growth inhibition by CLSI protocol based method; format: functional; details: Lodderomyces parapsilosis
# [5] = tested on: Pichia kudriavzevii; experiment: Antifungal activity against Candida krusei GIM2.1 assessed as fungal growth inhibition by CLSI protocol based method; format: functional
# [6] = tested on: Candida albicans; experiment: Antifungal activity against Candida albicans ATCC SC5314 assessed as fungal growth inhibition by CLSI protocol based method; format: functional
# [7] = tested on: Nakaseomyces glabratus; experiment: Antifungal activity against Candida glabrata assessed as fungal growth inhibition by CLSI protocol based method; format: functional
# [8] = tested on: Candida albicans; experiment: Antifungal activity against fluconazole-resistant Candida albicans 100 assessed as fungal growth inhibition by CLSI protocol based method
# [9] = tested on: Candida albicans; experiment: Antifungal activity against fluconazole-resistant Candida albicans 311 assessed as fungal growth inhibition by CLSI protocol based method
# [10] = tested on: Candida albicans; experiment: Antifungal activity against fluconazole-resistant Candida albicans 632 assessed as fungal growth inhibition by CLSI protocol based method
# [11] = tested on: Candida albicans; experiment: Antifungal activity against fluconazole-resistant Candida albicans 904 assessed as fungal growth inhibition by CLSI protocol based method
# [12] = tested on: Candida albicans; experiment: Antifungal activity against fluconazole-resistant Candida albicans 103 assessed as fungal growth inhibition by CLSI protocol based method
# [13] = tested on: Candida albicans; experiment: Antifungal activity against fluconazole-resistant Candida albicans 901 assessed as fungal growth inhibition by CLSI protocol based method
Compound,MIC [1] [µg/mL],MIC [2] [µg/mL],MIC [3] [µg/mL],MIC [4] [µg/mL],MIC [5] [µg/mL],MIC [6] [µg/mL],MIC [7] [µg/mL],MIC [8] [µg/mL],MIC [9] [µg/mL],MIC [10] [µg/mL],MIC [11] [µg/mL],MIC [12] [µg/mL],MIC [13] [µg/mL]
O=C(NC(Cn1ccnc1)C(=O)c1ccccc1)c1ccc(-c2ccc(F)cc2F)s1 (stereo unspecified),> 64,> 64,> 64,> 64,> 64,8,> 64,–,–,–,–,–,–
O=C(NC(Cn1ccnc1)C(=O)c1ccccc1)c1ccc(-c2cccc(F)c2)s1 (stereo unspecified),> 64,> 64,64,> 64,> 64,8,> 64,–,–,–,–,–,–
Cc1ccc(-c2ccc(C(=O)NC(Cn3ccnc3)C(=O)c3ccccc3)s2)cc1 (stereo unspecified),> 64,2,1,8,> 64,0.125,> 64,–,–,–,–,–,–
O=C(NC(Cn1ccnc1)C(=O)c1ccccc1)c1cnc(-c2ccccc2)o1 (stereo unspecified),> 64,> 64,64,> 64,> 64,32,> 64,–,–,–,–,–,–
O=C(NC(Cn1ccnc1)C(=O)c1ccccc1)c1ccc(-c2ccccc2)o1 (stereo unspecified),> 64,> 64,16,> 64,> 64,16,> 64,–,–,–,–,–,–
O=C(NC(Cn1ccnc1)C(=O)c1ccccc1)c1ccc(-c2ccccc2)s1 (stereo unspecified),8,1,0.5,0.5,32,0.5,2,4,8,8,4,4,4
O=C(NC(Cn1ccnc1)C(=O)c1cccc(Cl)c1)c1ccc(-c2ccc(Cl)cc2)s1 (stereo unspecified),> 64,1,0.25,0.5,> 64,< 0.03,0.5,2,4,> 64,> 64,4,8
O=C(NC(Cn1ccnc1)C(=O)c1ccc(F)cc1F)c1ccc(-c2ccc(Cl)cc2)s1 (stereo unspecified),2,> 64,> 64,> 64,> 64,0.5,> 64,–,–,–,–,–,–
O=C(NC(Cn1ccnc1)C(=O)c1ccccc1)c1cc2ccccc2s1 (stereo unspecified),> 64,> 64,> 64,> 64,> 64,> 64,> 64,–,–,–,–,–,–
O=C(NC(Cn1ccnc1)C(=O)c1ccccc1)c1noc2c1CCc1ccccc1-2 (stereo unspecified),16,4,8,32,> 64,8,16,–,–,–,–,–,–
O=C(NC(Cn1ccnc1)C(=O)c1ccccc1)c1ccc(-c2ccc(OC(F)(F)F)cc2)s1 (stereo unspecified),> 64,32,16,> 64,> 64,0.5,> 64,–,–,–,–,–,–
O=C(NC(Cn1ccnc1)C(=O)c1ccccc1)c1ccc(-c2ccc(F)cc2)s1 (stereo unspecified),> 64,32,32,> 64,> 64,1,> 64,–,–,–,–,–,–
O=C(NC(Cn1ccnc1)C(=O)c1ccccc1)c1ccc(-c2ccc(Cl)cc2Cl)s1 (stereo unspecified),> 64,> 64,> 64,> 64,> 64,> 64,> 64,–,–,–,–,–,–
O=C(NC(Cn1ccnc1)C(=O)c1ccccc1)c1ccc(-c2ccccc2Cl)s1 (stereo unspecified),> 64,> 64,> 64,> 64,> 64,> 64,> 64,–,–,–,–,–,–
COc1ccc(C(=O)C(Cn2ccnc2)NC(=O)c2ccc(-c3ccc(Cl)cc3)s2)cc1 (stereo unspecified),> 64,0.06,0.125,> 64,8,< 0.03,4,4,4,8,16,8,8
N#Cc1ccc(-c2ccc(C(=O)NC(Cn3ccnc3)C(=O)c3ccccc3)s2)cc1 (stereo unspecified),> 64,> 64,> 64,> 64,> 64,> 64,> 64,–,–,–,–,–,–
O=C(NC(Cn1ccnc1)C(=O)c1ccccc1)c1ccc(-c2ccsc2)cc1 (stereo unspecified),8,2,2,> 64,16,1,> 64,–,–,–,–,–,–
O=C(NC(Cn1ccnc1)C(=O)c1ccccc1)c1ccc(N2CCN(c3ccccc3)CC2)cc1 (stereo unspecified),> 64,> 64,> 64,> 64,> 64,> 64,> 64,–,–,–,–,–,–
O=C(NC(Cn1ccnc1)C(=O)c1ccccc1)c1ccc(-c2cccc(Cl)c2)s1 (stereo unspecified),> 64,32,32,> 64,> 64,16,> 64,–,–,–,–,–,–
CCOc1ccc(-c2ccc(C(=O)NC(Cn3ccnc3)C(=O)c3ccccc3)s2)cc1 (stereo unspecified),> 64,> 64,> 64,> 64,> 64,> 64,> 64,–,–,–,–,–,–
O=C(NC(Cn1ccnc1)C(=O)c1ccccc1)c1cc2ccccc2o1 (stereo unspecified),> 64,> 64,> 64,> 64,> 64,> 64,> 64,–,–,–,–,–,–
O=C(NC(Cn1ccnc1)C(=O)c1ccccc1)c1ccc2ccccc2c1 (stereo unspecified),32,0.5,2,> 64,> 64,0.5,> 64,–,–,–,–,–,–
O=C(NC(Cn1ccnc1)C(=O)c1ccc(OC(F)(F)F)cc1)c1ccc(-c2ccc(Cl)cc2)s1 (stereo unspecified),> 64,> 64,32,> 64,> 64,32,> 64,–,–,–,–,–,–
O=C(NC(Cn1ccnc1)C(=O)c1ccccc1)c1nc2ccc(Br)cc2s1 (stereo unspecified),> 64,> 64,> 64,> 64,> 64,32,> 64,–,–,–,–,–,–
